Measurements published in PMC7282810, “Existence and functions of a kisspeptin neuropeptide signaling system in a non-chordate deuterostome species” (eLife, 2020).
Bridges are numbered along the chain shown (N, C = ends). Where no end group is shown, it is not given here. [ ]: non-standard residue; d: D form.

Columns and labels:
AjKissR1 [1] = molecular target: T1, AjKissR1 (Apostichopus japonicus, UniProt A0A5B7LK60); assay: ERK1/2 phosphorylation (western blot) in HEK293 cells expressing FLAG-AjKissR1; assay type: cell-based; conditions: for Effect of inhibitor on AjKiss1b-10-activated ERK1/2 phosphorylation (in words): pre-treated 1 hr, U73122 10 μM, Gö6983 1.0 μM, AjKiss1b-10 1.0 μM
T1 sequence (A0A5B7LK60 1-378): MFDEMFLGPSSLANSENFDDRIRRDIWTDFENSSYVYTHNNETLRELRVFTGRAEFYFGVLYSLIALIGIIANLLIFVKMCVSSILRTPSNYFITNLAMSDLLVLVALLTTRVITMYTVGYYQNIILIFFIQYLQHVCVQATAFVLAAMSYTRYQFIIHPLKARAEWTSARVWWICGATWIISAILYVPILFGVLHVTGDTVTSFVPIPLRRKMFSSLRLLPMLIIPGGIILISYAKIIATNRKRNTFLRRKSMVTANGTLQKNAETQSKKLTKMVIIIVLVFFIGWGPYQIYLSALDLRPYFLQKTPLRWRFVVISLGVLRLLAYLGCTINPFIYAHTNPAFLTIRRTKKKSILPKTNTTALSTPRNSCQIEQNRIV
Method: (§1) To examine the phosphorylation of ERK, cells that expressed AjKissr1/2 or other GPR54s were incubated for the indicated times with different concentrations of kisspeptins. Subsequently, cells were lysed with lysis buffer (Beyotime) that contained protease inhibitor (Roche) at 4°C for 30 min on a rocker and then scraped. Proteins were then electrophoresed on a 10% SDS polyacrylamide gel and transferred to polyvinylidene difluoride (PVDF) membranes. Membranes were blocked with 5% skimmed milk, then probed with rabbit anti-phospho-ERK1/2(Thr^202/Tyr^204) antibody (1:2000; Cell Signaling Technology), followed by detection using HRP-conjugated goat anti-rabbit IgG (Beyotime). Blots were stripped and reprobed using anti-ERK1/2 antibody (1:2000; Cell Signaling Technology) as a control for protein loading.
(§2) Immunoreactive bands were detected with an enhanced chemiluminescent substrate (Beyotime), and the membrane was scanned using a Tanon 5200 Chemiluminescent Imaging System (Tanon Science and Technology, Shanghai, China).

AjKissR2 [2] = molecular target: T2, AjKissR2 (Apostichopus japonicus, UniProt A0A5B7LIE4); assay: ERK1/2 phosphorylation (western blot) in HEK293 cells expressing FLAG-AjKissR2; assay type: cell-based; conditions: for Effect of inhibitor on AjKiss1b-10-activated ERK1/2 phosphorylation (in words): pre-treated 1 hr, U73122 10 μM, Gö6983 1.0 μM, AjKiss1b-10 1.0 μM
T2 sequence (A0A5B7LIE4 1-327): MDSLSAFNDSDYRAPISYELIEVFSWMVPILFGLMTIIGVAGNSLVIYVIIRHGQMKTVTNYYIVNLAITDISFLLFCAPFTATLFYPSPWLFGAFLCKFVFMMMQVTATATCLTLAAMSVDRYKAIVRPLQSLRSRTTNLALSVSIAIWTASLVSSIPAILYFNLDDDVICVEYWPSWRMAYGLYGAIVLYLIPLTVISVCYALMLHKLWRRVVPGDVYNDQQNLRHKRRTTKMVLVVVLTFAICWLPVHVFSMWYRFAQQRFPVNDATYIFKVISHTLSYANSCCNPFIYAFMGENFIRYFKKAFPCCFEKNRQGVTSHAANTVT
Method: as §1, §2

AjKissR1 [3] = molecular target: T1, AjKissR1; assay: Ligand competition binding assay (FITC-AjKiss1a, FACS), HEK293/AjKissR1; conditions: 1.0 μM FITC-AjKiss1a, read-out: IC50 (competitive displacement of FITC-AjKiss1a)
Method: (§3) A fluorescence-activated cell sorter (FACS) was used to detect the binding ability of kisspeptins with AjKissR1 or AjKissR2. HEK293 cells expressing FLAG–AjKissR1 or FLAG–AjKissR2 were washed with PBS that contained 0.2% bovine serum albumin (FACS buffer). We designed and synthesized an N-terminal FITC-labeled AjKiss1a peptide (see 'Key resources table'). Different kisspeptins were diluted in the FACS buffer to different concentrations, then added to cells that were incubated on ice for 60–90 min. Cells were washed thrice with the FACS buffer and re-suspended in the FACS buffer with 1% paraformaldehyde for 15 min. The binding activity of the indicated kisspeptin peptides with AjKissR1 or AjKissR2 was determined by measuring the fluorescence of FITC and was presented as a percentage of total binding.

AjKissR1 [4] = molecular target: T1, AjKissR1; assay: cell-based; assay type: cell-based
Method: (§4) The fluorescent Ca^2+ indicator Fura-2/AM was used to detect intracellular calcium flux ([Li et al., 2010]). Briefly, the HEK293 cells expressing the AjKissR1, AjKissR2 or vertebrate kisspeptin receptor were washed twice with PBS and suspended at 5 × 10^6 cells/mL in Hanks’ balanced salt solution. The cells were then loaded with 3.0 μM Fura-2/AM for 30 min and washed twice in Hanks’ solution. They were then stimulated with the indicated concentrations of different predicted A. japonicus kisspeptins or vertebrate kisspeptins. Finally, intracellular calcium flux was measured for 60 s, by determining the ratio of excitation wavelengths at 340 and 380 nm using a fluorescence spectrometer (Infinite 200 PRO, Tecan, Männedorf, Switzerland). All of the experiments for measuring Ca^2+ mobilization were repeated independently at least three times.

AjKissR2 [5] = molecular target: T2, AjKissR2; assay: cell-based; assay type: cell-based
Method: as §4

AjKissR2 [6] = molecular target: T2, AjKissR2; assay: Ligand competition binding assay (FITC-AjKiss1a, FACS), HEK293/AjKissR2; conditions: 1.0 μM FITC-AjKiss1a, read-out: IC50 (competitive displacement of FITC-AjKiss1a)
Method: as §3

[7] = test system: cultured oocytes of sea cucumber; assay: ERK1/2 phosphorylation (western blot) in cultured ovary / oocytes of sea cucumber; assay type: cell-based, Apostichopus japonicus; conditions: pep234 1.0 μM, 4-hr pre-treatment; DrKiss1-10 or AjKiss1b-10 administrated cells
Method: as §1
(§5) For in vitro experiments, the ovary and respiratory tree tissues were cut into small pieces of approximately 1 mm^3 and cultured in Leibovitz L-15 medium (HyClone) supplemented with 12.0 g/L NaCl, 0.32 g/L KCl, 0.36 g/L CaCl2, 0.6 g/L Na2SO4, 2.4 g/L MgCl2, 0.6 g/L glucose at 18°C in a humidified incubator ([Wang et al., 2020]). For ERK1/2 phosphorylation or immunofluorescence assays, samples were evaluated or fixed after 2 hr of ligand/PBS administration, with a 4 hr pre-treatment of pep234/PBS.

[8] = test system: cultured oocytes of sea cucumber; assay: Immunofluorescence staining of p-ERK signal in cultured oocytes (confocal microscopy); assay type: cell-based, Apostichopus japonicus; conditions: 4-hr pre-treatment with pep234
Method: Paraffin sections were baked at 60°C for 2–4 hr and placed in xylene for 15 min, twice. The slides were washed twice in 100% ethanol for 10 min each, then in 95% ethanol for 10 min, 85% ethanol for 5 min, 70% ethanol for 5 min, and 50% ethanol for 5 min, followed by washing with dH2O for 5 min, and finally washing with PBS for 5 min. Antigen unmasking was performed in sodium citrate buffer (pH 6) for 10 min at 97°C, and then cooled to room temperature. Endogenous peroxidases were blocked by 10 min incubation in 3.0% hydrogen peroxide. Nonspecific antigens were blocked by a 60 min incubation in 0.3% bovine serum albumin (BSA) in TBST. Slides were incubated with primary antibodies overnight after removing the blocking solution, followed by 2 hr incubation with fluorescein isothiocyanate (FITC)-conjugated secondary antibodies (FITC-labeled goat anti-rabbit IgG (H+L), Beyotime). […]
as §5

FLAG–AjKissR2 = molecular target: T3, FLAG–AjKissR2 (Apostichopus japonicus); assay: competition with 1.0 uM FITC-AjKiss1a
T3 chain: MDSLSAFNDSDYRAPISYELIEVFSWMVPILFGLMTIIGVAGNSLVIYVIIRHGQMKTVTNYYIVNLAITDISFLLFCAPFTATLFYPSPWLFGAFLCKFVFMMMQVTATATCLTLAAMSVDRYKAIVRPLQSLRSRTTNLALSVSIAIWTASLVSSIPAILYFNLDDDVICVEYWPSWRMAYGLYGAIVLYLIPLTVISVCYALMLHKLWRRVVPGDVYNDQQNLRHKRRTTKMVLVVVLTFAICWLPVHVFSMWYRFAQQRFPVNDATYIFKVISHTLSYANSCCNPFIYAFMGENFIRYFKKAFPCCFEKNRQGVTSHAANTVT

[9] = molecular target: FLAG–AjKissR1 (Apostichopus japonicus)
[10] = molecular target: FLAG–AjKissR1 (Apostichopus japonicus); assay: flow cytometry on cells; ligand competition: 1.0 uM FITC-AjKiss1a with unlabeled kisspeptins at the indicated concentrations on HEK293 cells expressing FLAG-AjKissR1 or FLAG-AjKissR2; on ice 60-90 min; PBS with 0.2% BSA; FITC fluorescence as percentage of total binding
FLAG–AjKissR1 = molecular target: T4, FLAG–AjKissR1 (Apostichopus japonicus); assay: competition with 1.0 uM FITC-AjKiss1a
T4 chain: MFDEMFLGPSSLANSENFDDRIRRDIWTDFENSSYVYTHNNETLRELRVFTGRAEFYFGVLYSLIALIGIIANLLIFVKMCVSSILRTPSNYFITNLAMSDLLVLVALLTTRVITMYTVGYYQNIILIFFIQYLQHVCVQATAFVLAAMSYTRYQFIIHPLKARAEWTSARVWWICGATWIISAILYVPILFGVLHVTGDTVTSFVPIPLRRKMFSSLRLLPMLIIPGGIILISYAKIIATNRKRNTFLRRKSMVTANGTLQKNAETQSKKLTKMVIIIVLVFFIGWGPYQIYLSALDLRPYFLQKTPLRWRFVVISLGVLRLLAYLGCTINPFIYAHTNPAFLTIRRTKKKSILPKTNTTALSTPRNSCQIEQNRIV

[11] = molecular target: FLAG–AjKissR2 (Apostichopus japonicus); assay: flow cytometry on cells; ligand competition: 1.0 uM FITC-AjKiss1a with unlabeled kisspeptins at the indicated concentrations on HEK293 cells expressing FLAG-AjKissR1 or FLAG-AjKissR2; on ice 60-90 min; PBS with 0.2% BSA; FITC fluorescence as percentage of total binding
[12] = different concentrations for 5 min, immunoblot quantification, Figure 6A
[13] = 100 nM AjKiss1a or AjKiss1b, pre-treated 12 hr PTX 100 ng/mL, or 1 hr FR900359 1.0 μM, U73122 10 μM, BAPTA-AM 100.0 μM, EGTA 5.0 mM

COc1ccc2c(c1)c(C1=C(c3c[nH]c4ccccc34)C(=O)NC1=O)cn2CCCN(C)C [Gö6983]
Effect of inhibitor on AjKiss1b-10-activated ERK1/2 phosphorylation (in words) (AjKissR1 [1]): significantly blocked | Effect of inhibitor on AjKiss1b-10-activated ERK1/2 phosphorylation (in words) (AjKissR2 [2]): significantly blocked

SAVKNKNKSRARPPLLPF-NH2 [AjKiss1b]
IC50 (AjKissR1 [3]): 353 nM | EC50 (AjKissR1 [4]): 8.06 nM | EC50 (AjKissR2 [5]): 33.2 nM | IC50 (AjKissR2 [6]): 1250 nM

SRARPPLLPF-NH2 [AjKiss1b-10]
EC50 (AjKissR1 [4]): 1.71 nM | EC50 (AjKissR2 [5]): 27.3 nM | EC50 (AjKissR1 [1]; [12]): 31.6 nM | EC50 (AjKissR2 [2]; [12]): 98.7 nM

COc1ccc2c(c1)CC[C@@H]1[C@@H]2CC[C@]2(C)[C@@H](NCCCCCCN3C(=O)C=CC3=O)CC[C@@H]12 [U73122, reference compound]
Effect of inhibitor pre-treatment on AjKiss1a/AjKiss1b-elicited Ca2+ mobilization (in words) (AjKissR1 [4]; [13]): significantly attenuated | Effect of inhibitor pre-treatment on AjKiss1a/AjKiss1b-elicited Ca2+ mobilization (in words) (AjKissR2 [5]; [13]): significantly attenuated | Effect of inhibitor on AjKiss1b-10-activated ERK1/2 phosphorylation (in words) (AjKissR1 [1]): significantly blocked | Effect of inhibitor on AjKiss1b-10-activated ERK1/2 phosphorylation (in words) (AjKissR2 [2]): significantly blocked

Ac-[dA]NWNGFG[dW]RF-NH2 [pep234, vertebrate kisspeptin antagonist]
Block of kisspeptin-induced ERK phosphorylation signal, western blot (in words) [7]: blocked | Inhibition of AjKiss1b-10-induced p-ERK signal in oocytes, confocal microscopy (in words) [8]: inhibition

SAVKNKNKSRARPPLLPF-NH2 [AjKiss1b (C-terminal amidated)]
IC50 (FLAG–AjKissR2): 1250 nM | EC50 of intracellular Ca2+ mobilization (Fura-2/AM) in HEK293 cells expressing FLAG-AjKissR1 [9]: 8.06 nM | IC50 [10]: 353 nM

B1: AjKiss1a (C-terminal amidated) (peptide)
peptide: AGSLDCLEASCEDVERRGRQPNRNAHYRTLPF-NH2
modifications: disulfide 6-11; N-terminus assumed
SMILES: CC(C)C[C@H](NC(=O)[C@H](CO)NC(=O)CNC(=O)[C@H](C)N)C(=O)N[C@@H](CC(=O)O)C(=O)N[C@H]1CSSC[C@@H](C(=O)N[C@@H](CCC(=O)O)C(=O)N[C@@H](CC(=O)O)C(=O)N[C@H](C(=O)N[C@@H](CCC(=O)O)C(=O)N[C@@H](CCCNC(=N)N)C(=O)N[C@@H](CCCNC(=N)N)C(=O)NCC(=O)N[C@@H](CCCNC(=N)N)C(=O)N[C@@H](CCC(N)=O)C(=O)N2CCC[C@H]2C(=O)N[C@@H](CC(N)=O)C(=O)N[C@@H](CCCNC(=N)N)C(=O)N[C@@H](CC(N)=O)C(=O)N[C@@H](C)C(=O)N[C@@H](Cc2c[nH]cn2)C(=O)N[C@@H](Cc2ccc(O)cc2)C(=O)N[C@@H](CCCNC(=N)N)C(=O)N[C@H](C(=O)N[C@@H](CC(C)C)C(=O)N2CCC[C@H]2C(=O)N[C@@H](Cc2ccccc2)C(N)=O)[C@@H](C)O)C(C)C)NC(=O)[C@H](CO)NC(=O)[C@H](C)NC(=O)[C@H](CCC(=O)O)NC(=O)[C@H](CC(C)C)NC1=O
IC50 (FLAG–AjKissR1): 568 nM | IC50 [11]: 95.2 nM
